Values quoted from earlier work as cited in patent publication US11013844B2, “Treatment device for plasma virus inactivation” (City of Hope, priority 2014, dated 2021).

Details: within 6 days

CN(C)c1ccc2nc3ccc(N(C)C)cc3[s+]c2c1.[Cl-] [methylene blue, 3,7-bis(dimethylamino)phenothiazin-5-ium chloride]
methylene blue drained through urine: 74% | part drained through urine in the original form (the other is white methylene blue): 22%
